# Test results as given in patent US6337317B1, “Antimicrobial peptides and methods of use thereof” (priority 2000, dated 2002).
# Where a SMILES comes first, the peptide text is derived from it.
# Legend:
# Human Red Blood Cells = assay: Hemolytic assay; type: cell-based
# Method: The toxicity of invention peptides can be assessed using a hemolytic assay in which the ability of the peptides to lyse human red blood cells is assessed (Zhang et al. (1999) Biochemistry 38:8102-8111; and Examples section).
# Hemolytic activity of invention peptides was tested against human red blood cells. Freshly collected human blood treated with heparin was centrifuged to remove the buffy coat, and the erythrocytes thereby obtained were washed three times in saline (0.85% NaCl). Serial dilutions of the peptides in saline were prepared in round-bottomed microtiter plates using total volumes of 100 μl. Red blood cells were diluted with saline to 1/25 of a packed cell volume, and 50 μl of cells were added to each well. Plates, while rocking, were incubated at 37° C., and the concentration of the peptide required for lysis after 4 h was taken as the minimal hemolytic concentration.
# [1] = system: E. coli 0111:B4 LPS induced production of IL-6 in RAW macrophages; assay: Reduction of LPS-induced IL-6 in RAW 264.7 macrophages (ELISA); type: cell-based, murine; conditions: peptide 20 μg/ml; LPS 100 ng/ml; RAW 264.7; 6 hours
# Method: The ability of invention peptides to reduce LPS-induced tumor necrosis factor (TNF) production was tested in an in vitro assay. The murine macrophage cell line RAW 264.7 was obtained from American Type Culture Collection (Manassas, Va.) and grown in DMEM medium supplemented with 10% fetal calf serum. The cells were plated at a density of 10^6 cells/well in 24 well plates, incubated overnight, then washed with fresh medium. E. coli 0111 :B4 (100 ng/ml) was added at time 0 to RAW macrophages. Invention peptides […]/m were added at time 0, 30 and 60 minutes and the cells were stimulated for 6 hours. Levels of TNF and interleukin-6 (IL-6) were measured after 6 hours.
# [2] = LPS-induced endotoxemia in galactosamine-sensitized mice; type: in vivo; conditions: 200 μg peptide intraperitoneally, groups of 10 mice, up to 24 h
# Method: Bacterial endotoxin (LPS) is highly toxic and can cause high mortality in both humans and animals when released during Gram-negative bacterial infection. Galactosamine-treated mice exposed to moderate does of endotoxin typically die from endotoxic shock within 17 hours following exposure. Invention peptides can be tested for their ability to protect mice against endotoxin-induced death (see Examples section). The anti-endotoxic activity of invention peptides also can be tested in an in vitro assay using a macrophage cell line (Gough et al. (1996) Infect. Immun. 64:4922-4927; and Examples section).
# The ability of invention peptides to protect against LPS-induced endotoxemia was assessed in vivo. Mice (8-10 weeks old) were injected intraperitoneally with […] D-galactosamine (Dgal) to sensitize them to LPS according to the method of Galanos (Galanos et al. (1979) Proc. Natl. Acad. Sci., USA, 76:5939-5943). Endotoxic shock was induces by intraperitoneal injections of 3 μg/mL E. coli 111 :B4 LPS in phosphate-buffered saline (PBS). Invention peptides (200 μg/100 μl sterile water) were injected intraperitoneally at a separate site within 10 min of LPS injection, and survival was monitored up to 24 h following injection.
# [3] = system: intact cells of E. coli UB1005; assay: NPN uptake assay, outer membrane permeabilization; type: cell-based, Escherichia coli; conditions: peptide concentration leading to 50% of maximal increase in NPN uptake
# Method: The outer membrane permeabilization activity of invention peptides was determined by the 1-N-phenylnapthylamine (NPN) uptake assay of Loh et al. ((1984) Antimicor. Agents Chemother. 26:546-551), using intact cells of E. coli UB1005.
# The cytoplasmic membrane depolarization activity of the peptides was determined (Wu and Hancock (1999) J. Biol. Chem. 274:29-35) using the membrane potential sensitive dye 3,3-dipropylthiacarbocyanine diSC35 (28) and E. coli DC2. Bacterial cells in mid-log phase were centrifuged, washed in 5 mM HEPES, pH 7.8, and resuspended in the same buffer to an OD600 of 0.05. A stock solution of diSC35 was added to a final concentration of 0.4 μM and quenching was allowed to occur at room temperature for 20-30 min. Then KCl was added to the cell suspension to a final concentration of 100 mM to equilibrate the cytoplasmic and external K^+ concentrations. A 2-mL cell suspension was placed in a 1 cm cuvette and the desired concentration of tested peptide was added. Changes in fluorescence due to the disruption of the membrane potential in the cytoplasmic membrane were continuously recorded using a Perkin-Elmer model 650-10S spectrofluorimeter at an excitation wavelength of 622 nm and an emission wavelength of 670 nm. The concentration of peptide leading to a 50% of maximal increase in NPN uptake was recorded as the P50.
# Therefore, an increase in fluorescence in the presence of a peptide indicates the ability of peptide to permeabilize the bacterial outer membrane.
compound,measurement,setting,value
"CC(C)[C@@H]1NC(=O)[C@H](CCCNC(=N)N)NC(=O)[C@H](Cc2ccccc2)NC(=O)[C@@H](NC(=O)[C@H](Cc2c[nH]c3ccccc23)NC(=O)[C@H](CCCNC(=N)N)NC(=O)[C@@H](N)CCCNC(=N)N)CSSC[C@@H](C(=O)N[C@@H](CCCNC(=N)N)C(N)=O)NC(=O)[C@H](CCCCN)NC(=O)[C@H](CCCNC(=N)N)NC(=O)[C@H](Cc2ccc(O)cc2)NC(=O)[C@@H]2CSSC[C@H](NC1=O)C(=O)N[C@@H](Cc1ccc(O)cc1)C(=O)N[C@@H](CCCNC(=N)N)C(=O)NCC(=O)N[C@@H](Cc1ccccc1)C(=O)N2 [Polyphemusin I] (HELM PEPTIDE1{R.R.W.C.F.R.V.C.Y.R.G.F.C.Y.R.K.C.R.[am]}$PEPTIDE1,PEPTIDE1,4:R3-17:R3|PEPTIDE1,PEPTIDE1,8:R3-13:R3$$$V2.0; N-terminus and C-terminus assumed)",minimal hemolytic concentration (printed under MIC head),"Human Red Blood Cells; Human Red Blood Cells, lysis after 4 h at 37° C.",21.3 µg/mL
same,hemolytic activity,Human Red Blood Cells; red blood cells,show hemolytic activity
same,Inhibition of IL-6 (%),[1],84 ± 3%
same,"Survival (%), LPS-Endotoxemia",[2],10%
same,P50,[3],2.8 µg/mL
